Here are results for eight compounds from US10196378B2, “Inhibitors of BCR-ABL mutants and use thereof” (THE REGENTS OF THE UNIVERSITY OF MICHIGAN, priority 2016, dated 2019).

Series [1] deals with parental IL-3 dependent Ba/F3 cells. Kind of series: cells. The conditions noted are these: Mus musculus, BaF3, read-out: GI50, Ba/F3 parental.
Series [2] deals with chronic myelogenous leukemia. The conditions noted are these: CML patients; about 30% prior to any targeted therapy; cited from earlier work.
A further series has as its system K562. Kind of series: Growth inhibition (GI50) in K562 CML cells. The conditions noted are these: Homo sapiens, K562, read-out: GI50, K562. The series is classed as cell-based.
The subject of another series is BV-173. Put plainly: Growth inhibition (GI50) in BV-173 CML cells. It is filed as cell-based. The conditions noted are these: Homo sapiens, BV-173, read-out: GI50, BV-173.
For the next series, the system named is BV-173R. Kind of series: Growth inhibition (GI50) in BV-173R CML cells. It is filed as cell-based. The conditions noted are these: read-out: GI50, BV-173R.
The target in a further series is Tie2 (Homo sapiens (Human), UniProt Q02763). Kind of series: NanoSyn single-concentration kinase inhibition. It is filed as biochemical. To be noted: read-out: % inhibition at 100 nM, Tie2.
For a further series, the target named is FGFR3 (Homo sapiens (Human), UniProt P22607). Put plainly: NanoSyn single-concentration kinase inhibition. The series is classed as biochemical. To be noted: read-out: % inhibition at 100 nM, FGFR3.
The next series concerns the target Abl2/Arg (Homo sapiens (Human), UniProt P42684). Put plainly: NanoSyn single-concentration kinase inhibition. It is filed as biochemical. To be noted: read-out: % inhibition at 100 nM, Abl2/Arg.
The target in another series is FLT3 (Homo sapiens (Human), UniProt P36888). Kind of series: NanoSyn single-concentration kinase inhibition. It is filed as biochemical. To be noted: read-out: % inhibition at 100 nM, FLT3.
The next series addresses Lyn-A (Homo sapiens (Human), UniProt P07948). Kind of series: NanoSyn single-concentration kinase inhibition. The series is classed as biochemical. To be noted: read-out: % inhibition at 100 nM, Lyn-A.
The target of the next series is PDGFRα (Homo sapiens (Human), UniProt P16234). Kind of series: NanoSyn single-concentration kinase inhibition. It is filed as biochemical. The conditions noted are these: read-out: % inhibition at 100 nM, PDGFRα.
The next series addresses Lck (Homo sapiens (Human), UniProt P06239). Kind of series: NanoSyn single-concentration kinase inhibition. It is filed as biochemical. To be noted: read-out: % inhibition at 100 nM, Lck.
The next series has as its target C-Raf (Homo sapiens (Human), UniProt P04049). Kind of series: NanoSyn single-concentration kinase inhibition. It is filed as biochemical. The conditions noted are these: read-out: % inhibition at 100 nM, C-Raf.
Another series addresses PDGFRβ (Homo sapiens (Human), UniProt P09619). Kind of series: NanoSyn single-concentration kinase inhibition. It is filed as biochemical. To be noted: read-out: % inhibition at 100 nM, PDGFRβ.
For another series, the target named is VEGFR1 (FLT1) (Homo sapiens (Human), UniProt P17948). Kind of series: NanoSyn single-concentration kinase inhibition. The series is classed as biochemical.
A further series deals with MAP4K5 (Homo sapiens (Human), UniProt Q9Y4K4). Put plainly: NanoSyn single-concentration kinase inhibition. The series is classed as biochemical. To be noted: read-out: % inhibition at 100 nM, MAP4K5.
In another series the target is FGFR1 (Homo sapiens (Human), UniProt P11362). Kind of series: NanoSyn single-concentration kinase inhibition. It is filed as biochemical. The conditions noted are these: read-out: % inhibition at 100 nM, FGFR1.
A further series addresses EPH-A3 (Homo sapiens (Human), UniProt P29320). Kind of series: NanoSyn single-concentration kinase inhibition. The series is classed as biochemical. To be noted: read-out: % inhibition at 100 nM, EPH-A3.
Another series has as its target Csk (Homo sapiens (Human), UniProt P41240). Kind of series: NanoSyn single-concentration kinase inhibition. The series is classed as biochemical. The conditions noted are these: read-out: % inhibition at 100 nM, Csk.
The target in another series is VEGFR3 (FLT4) (Homo sapiens (Human), UniProt P35916). Kind of series: NanoSyn single-concentration kinase inhibition. The series is classed as biochemical. To be noted: read-out: % inhibition at 100 nM, VEGFR3 (FLT4).
Series [3] concerns the target T1, VEGFR2 (KDR) (Homo sapiens (Human), UniProt P35968).
For series [4] the following is noted: phase I trial, cited from earlier work.
Series [5] addresses T1, VEGFR2 (KDR). Put plainly: biochemical. The conditions noted are these: read-out: % inhibition at 100 nM, VEGFR2 (KDR), 100 nM.

Sequence of VEGFR1 (FLT1) (P17948 27-1338, species assumed): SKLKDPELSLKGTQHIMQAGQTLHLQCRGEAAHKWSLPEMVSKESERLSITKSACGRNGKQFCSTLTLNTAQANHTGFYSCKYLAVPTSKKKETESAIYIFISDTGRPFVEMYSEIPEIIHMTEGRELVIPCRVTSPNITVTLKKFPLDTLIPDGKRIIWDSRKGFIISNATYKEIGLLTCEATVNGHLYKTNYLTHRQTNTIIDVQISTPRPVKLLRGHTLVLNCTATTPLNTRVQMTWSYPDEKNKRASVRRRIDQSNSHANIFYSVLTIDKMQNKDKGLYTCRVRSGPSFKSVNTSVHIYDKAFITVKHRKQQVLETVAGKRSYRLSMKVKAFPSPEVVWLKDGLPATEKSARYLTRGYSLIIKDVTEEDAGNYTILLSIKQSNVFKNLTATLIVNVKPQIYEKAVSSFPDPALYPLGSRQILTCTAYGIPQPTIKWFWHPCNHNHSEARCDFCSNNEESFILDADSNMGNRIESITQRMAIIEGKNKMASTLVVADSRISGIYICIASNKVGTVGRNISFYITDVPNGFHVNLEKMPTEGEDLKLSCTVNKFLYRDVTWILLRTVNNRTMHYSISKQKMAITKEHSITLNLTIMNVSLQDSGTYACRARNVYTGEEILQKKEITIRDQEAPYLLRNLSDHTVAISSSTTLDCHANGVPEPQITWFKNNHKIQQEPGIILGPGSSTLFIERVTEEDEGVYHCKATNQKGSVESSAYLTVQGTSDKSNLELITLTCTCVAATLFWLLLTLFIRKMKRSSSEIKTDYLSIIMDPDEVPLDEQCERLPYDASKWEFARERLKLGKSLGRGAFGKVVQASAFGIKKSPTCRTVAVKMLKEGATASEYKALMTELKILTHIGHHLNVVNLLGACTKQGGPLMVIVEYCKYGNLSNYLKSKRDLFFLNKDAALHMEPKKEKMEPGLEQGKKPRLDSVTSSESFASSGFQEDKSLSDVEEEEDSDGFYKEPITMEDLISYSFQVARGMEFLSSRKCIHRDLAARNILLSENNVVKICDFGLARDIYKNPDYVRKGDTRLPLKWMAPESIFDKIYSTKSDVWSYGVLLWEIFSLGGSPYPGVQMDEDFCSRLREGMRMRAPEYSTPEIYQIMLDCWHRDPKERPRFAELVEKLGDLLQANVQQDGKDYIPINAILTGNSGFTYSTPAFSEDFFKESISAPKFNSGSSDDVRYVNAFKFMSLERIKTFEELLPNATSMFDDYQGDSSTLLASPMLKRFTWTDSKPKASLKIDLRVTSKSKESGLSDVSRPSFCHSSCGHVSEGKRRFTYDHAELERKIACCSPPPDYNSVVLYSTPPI
T1 sequence (P35968 20-1356, species assumed): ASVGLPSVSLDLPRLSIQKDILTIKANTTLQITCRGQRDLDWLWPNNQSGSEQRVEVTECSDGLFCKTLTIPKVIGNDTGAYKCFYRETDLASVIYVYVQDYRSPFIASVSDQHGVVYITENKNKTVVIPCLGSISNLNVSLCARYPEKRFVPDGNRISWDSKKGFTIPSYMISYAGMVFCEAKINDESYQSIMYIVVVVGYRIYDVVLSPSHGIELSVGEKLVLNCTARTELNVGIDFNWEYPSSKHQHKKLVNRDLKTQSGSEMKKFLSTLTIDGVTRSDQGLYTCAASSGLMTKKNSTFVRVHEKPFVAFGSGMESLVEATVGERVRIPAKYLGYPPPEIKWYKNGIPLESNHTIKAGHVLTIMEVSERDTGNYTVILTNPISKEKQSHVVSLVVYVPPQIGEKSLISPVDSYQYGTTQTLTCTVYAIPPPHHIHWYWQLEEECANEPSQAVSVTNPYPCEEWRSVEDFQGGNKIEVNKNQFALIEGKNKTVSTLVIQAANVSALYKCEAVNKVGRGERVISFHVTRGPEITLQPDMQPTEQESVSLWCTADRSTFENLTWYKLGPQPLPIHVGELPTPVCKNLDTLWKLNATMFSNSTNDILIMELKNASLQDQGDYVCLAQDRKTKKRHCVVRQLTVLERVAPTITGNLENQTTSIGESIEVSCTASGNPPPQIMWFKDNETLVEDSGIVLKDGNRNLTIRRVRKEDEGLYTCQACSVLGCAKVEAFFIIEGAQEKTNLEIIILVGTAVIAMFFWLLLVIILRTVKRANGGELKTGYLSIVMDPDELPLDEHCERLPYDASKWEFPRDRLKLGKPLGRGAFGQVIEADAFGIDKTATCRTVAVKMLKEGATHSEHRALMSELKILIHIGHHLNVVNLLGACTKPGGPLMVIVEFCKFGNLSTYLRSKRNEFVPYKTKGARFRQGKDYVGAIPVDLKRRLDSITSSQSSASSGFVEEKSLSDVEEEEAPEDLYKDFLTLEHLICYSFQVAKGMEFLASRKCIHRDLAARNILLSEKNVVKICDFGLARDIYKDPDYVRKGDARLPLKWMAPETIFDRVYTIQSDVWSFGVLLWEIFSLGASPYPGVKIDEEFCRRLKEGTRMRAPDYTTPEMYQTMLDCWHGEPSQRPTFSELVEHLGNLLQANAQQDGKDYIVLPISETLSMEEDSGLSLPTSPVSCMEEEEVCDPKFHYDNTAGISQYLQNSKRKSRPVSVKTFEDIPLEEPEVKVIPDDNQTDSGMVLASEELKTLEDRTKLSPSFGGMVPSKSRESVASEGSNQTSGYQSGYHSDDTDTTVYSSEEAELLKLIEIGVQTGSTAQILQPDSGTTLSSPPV
Sequence of EPH-A3 (P29320 21-983, species assumed): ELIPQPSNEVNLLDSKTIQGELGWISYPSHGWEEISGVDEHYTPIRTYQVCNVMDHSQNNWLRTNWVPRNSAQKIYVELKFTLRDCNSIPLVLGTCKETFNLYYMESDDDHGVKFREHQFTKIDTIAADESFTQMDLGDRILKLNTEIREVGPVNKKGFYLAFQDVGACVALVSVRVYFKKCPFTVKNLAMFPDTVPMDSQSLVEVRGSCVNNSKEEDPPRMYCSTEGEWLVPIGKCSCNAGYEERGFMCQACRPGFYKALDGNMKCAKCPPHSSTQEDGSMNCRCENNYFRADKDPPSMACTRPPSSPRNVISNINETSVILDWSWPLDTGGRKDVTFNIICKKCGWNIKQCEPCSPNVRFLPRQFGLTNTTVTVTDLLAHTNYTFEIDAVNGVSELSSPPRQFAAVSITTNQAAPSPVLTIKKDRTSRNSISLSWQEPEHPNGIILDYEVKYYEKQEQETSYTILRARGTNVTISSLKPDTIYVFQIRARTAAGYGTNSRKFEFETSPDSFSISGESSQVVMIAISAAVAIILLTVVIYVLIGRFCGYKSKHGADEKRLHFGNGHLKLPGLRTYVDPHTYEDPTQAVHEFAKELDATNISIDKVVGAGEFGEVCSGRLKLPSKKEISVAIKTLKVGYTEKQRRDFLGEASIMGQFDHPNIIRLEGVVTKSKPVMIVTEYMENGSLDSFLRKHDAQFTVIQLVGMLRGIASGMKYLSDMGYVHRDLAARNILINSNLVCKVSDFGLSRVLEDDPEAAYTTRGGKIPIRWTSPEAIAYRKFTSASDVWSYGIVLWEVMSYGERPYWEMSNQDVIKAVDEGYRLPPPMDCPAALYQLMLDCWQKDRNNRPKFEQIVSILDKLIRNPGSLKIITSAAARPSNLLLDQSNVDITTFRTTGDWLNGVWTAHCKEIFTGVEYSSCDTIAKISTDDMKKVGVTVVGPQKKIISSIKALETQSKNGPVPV
Sequence of PDGFRβ (P09619 33-1106, species assumed): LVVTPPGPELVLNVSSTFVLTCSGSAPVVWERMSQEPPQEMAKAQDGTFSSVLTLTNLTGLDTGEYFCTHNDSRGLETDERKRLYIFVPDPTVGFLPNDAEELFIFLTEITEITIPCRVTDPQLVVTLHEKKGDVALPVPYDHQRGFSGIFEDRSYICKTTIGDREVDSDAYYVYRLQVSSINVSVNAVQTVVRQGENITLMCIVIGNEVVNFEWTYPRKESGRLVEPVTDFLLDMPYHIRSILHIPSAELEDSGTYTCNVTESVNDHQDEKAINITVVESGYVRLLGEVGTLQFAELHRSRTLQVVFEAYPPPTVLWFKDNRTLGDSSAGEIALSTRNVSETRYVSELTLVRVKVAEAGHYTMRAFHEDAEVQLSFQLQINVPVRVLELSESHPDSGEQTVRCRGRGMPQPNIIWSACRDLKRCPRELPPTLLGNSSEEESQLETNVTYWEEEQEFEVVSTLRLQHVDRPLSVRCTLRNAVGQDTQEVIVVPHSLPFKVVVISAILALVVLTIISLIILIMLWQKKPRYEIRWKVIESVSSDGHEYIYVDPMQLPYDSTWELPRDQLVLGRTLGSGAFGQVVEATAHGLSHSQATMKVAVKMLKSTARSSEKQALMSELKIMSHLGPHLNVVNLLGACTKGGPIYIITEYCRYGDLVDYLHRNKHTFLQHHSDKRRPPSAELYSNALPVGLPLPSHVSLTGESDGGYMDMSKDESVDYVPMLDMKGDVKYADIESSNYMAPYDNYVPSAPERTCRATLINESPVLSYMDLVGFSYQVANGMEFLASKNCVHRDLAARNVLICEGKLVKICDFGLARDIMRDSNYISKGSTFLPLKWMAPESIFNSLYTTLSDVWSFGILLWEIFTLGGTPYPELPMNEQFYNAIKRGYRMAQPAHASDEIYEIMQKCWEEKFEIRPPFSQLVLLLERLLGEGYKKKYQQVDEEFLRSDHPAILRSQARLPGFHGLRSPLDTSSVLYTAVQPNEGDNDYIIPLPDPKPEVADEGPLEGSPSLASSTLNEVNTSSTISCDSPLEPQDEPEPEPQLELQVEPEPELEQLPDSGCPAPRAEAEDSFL

Turning to `CNC(=O)c1cc(Oc2ccc(NC(=O)Nc3ccc(CN4CCN(C)CC4)c(C(F)(F)F)c3)cc2)ccn1` [Compound C01], the GI50 in series [1] came to 4.84 µM.
Same read-out and setting: the same measure for `CN1CCN(Cc2ccc(NC(=O)Nc3ccc(Oc4ccncc4)cc3)cc2C(F)(F)F)CC1` [Compound C02]: 5 µM.
Turning to `CN1CCN(Cc2ccc(NC(=O)Nc3ccc(Oc4ccc5ncncc5c4)cc3)cc2C(F)(F)F)CC1` [Compound C03], the GI50 in series [1] was 5.58 µM.
As for `CN1CCN(Cc2ccc(NC(=O)Nc3ccc(Nc4ccc5ncccc5c4)cc3)cc2C(F)(F)F)CC1` [Compound C04], the GI50 in series [1] was found to be 5.12 µM.
For `CN1CCN(Cc2ccc(NC(=O)Nc3ccc(Oc4ccc5ncccc5c4)cc3)cc2C(F)(F)F)CC1` [Compound C05], the GI50 in series [1] is 5.3 µM.
Regarding `CN1CCN(Cc2ccc(NC(=O)Nc3ccc(Oc4ccc5cccnc5c4)cc3)cc2C(F)(F)F)CC1` [Compound C06], in series [1], the GI50 stood at 5.22 µM.
`Cc1ccc(NC(=O)c2ccc(CN3CCN(C)CC3)cc2)cc1Nc1nccc(-c2cccnc2)n1` [imatinib]: the “5-year overall survival rate” value in [2] is listed as 90%.
As for `Cc1ccc(C(=O)Nc2ccc(CN3CCN(C)CC3)c(C(F)(F)F)c2)cc1C#Cc1cnc2cccnn12` [ponatinib], the GI50 in the series with K562 amounted to 0.0025 µM; with BV-173 it was 0.006 µM; in the series on BV-173R it was 0.015 µM. Besides, the inhibition at 0.1 µM is 95% at Tie2; 91% at FGFR3; 99% at Abl2/Arg; 95% on FLT3; 99% on Lyn-A; 98% on PDGFRα. Also, the inhibition at 0.1 µM was determined as 99% on Lck; 118% on C-Raf; 108% at PDGFRβ; 100% on VEGFR1 (FLT1) (read-out: % inhibition at 100 nM, VEGFR1 (FLT1), 100 nM); 102% on MAP4K5; 102% at FGFR1. Besides, the inhibition at 0.1 µM on EPH-A3 was found to be 101%; at Csk, 100%; on VEGFR3 (FLT4), 100%; on VEGFR2 (KDR) [5], 100%. Also, on VEGFR1 (FLT1) (100 nM), the “% inhibition at 100 nM, VEGFR1 (FLT1)” value came to 107%. For the same compound, the “% inhibition at 100 nM, VEGFR2 (KDR)” value on VEGFR2 (KDR) [3] came out at 102%. In addition, in series [4] (median follow-up of 2.7 years), the “patients with serious vascular AEs” value is listed as 48%. Further, the “patients who developed arterial or venous thrombosis and occlusions” value in series [4] is “Twenty-seven”. Also, the “patients with heart failure, including fatalities” value in series [4] is given as 8%.
